Test results from patent EP4793274A1, “SALT AND CRYSTAL FORM OF KIF18A INHIBITOR COMPOUND, PREPARATION METHOD THEREFOR AND USE THEREOF” (Hubei Bio-Pharmaceutical Industrial Technological Institute …, priority 2023, dated 2025).
Where a name gives a salt, the structure may show the parent alone.

What was measured:
[1] = Hygroscopicity by dynamic vapor sorption (DVS); type: physicochemical
Procedure: Dynamic vapor sorption (DVS) curves were acquired on a DVS IntrInsic from Surface Measurement Systems (SMS). The relative humidity at 25 °C was corrected with the deliquescence points of LiCl, Mg(NO3)2, and KCl. Table A-5. DVS test parameters
The percentage changes in mass of the samples when the humidity changed (0% RH to 95% RH) at a constant temperature of 25 °C were collected. 157-166.

[2] = Solid state stability (XRPD and HPLC purity); type: physicochemical; details: 80 °C/sealed condition for 1 day
Description: 167-171. […] Table C-3. Summary of solid state stability evaluation

[3] = Dynamic solubility at 37 °C in H2O, SGF, FaSSIF and FeSSIF (HPLC concentration, pH of filtrate, XRPD of residual solid); type: physicochemical; details: for S: solubility: feeding concentration 10 mg/mL; for FC: crystal form change: XRPD of residual solid; for pH: pH of filtrate
Procedure: 0.82 mL of glacial acetic acid and 1.18 g of NaCl were added to a 100 mL volumetric flask and completely dissolved by addition of purified water.
The solubility of each sample in H2O, SGF, FaSSIF, and FeSSIF was determined at different time points (1 h, 2 h, 4 h, and 24 h). […] 137-156. […] Table C-2. Summary of dynamic solubility test results at 37 °C

[4] = Solubility at room temperature in water, SGF and FaSSIF (HPLC concentration, pH of filtrate, XRPD of residual solid); details: for S: solubility: feeding concentration 1 mg/mL; for pH: pH of filtrate
Procedure: 100 mg of NaCl and 50 mg of Triton X-100 were weighed into a 50 mL volumetric flask and then completely dissolved by addition of purified water. 816 µL of 1 M hydrochloric acid was added, and the pH was adjusted to 1.8 with 1 M hydrochloric acid or 1 M NaOH solution. The mixed solution was brought to the volume by addition of purified water.
340 mg of anhydrous NaH2PO4 and 620 mg of NaCl were weighed into a 100 mL volumetric flask, and then completely dissolved by addition of purified water. 55.44 µL of a 50% NaOH solution was then added, and the pH was adjusted to 6.5 with 1 M hydrochloric acid or 1 M NaOH solution. The mixed solution was brought to the volume by addition of purified water. Subsequently, 110 mg of SIF powder was weighed into a 50 mL volumetric flask and completely dissolved in the solution described above, and the mixed solution was brought to the volume.
Solids at a feeding concentration of 1 mg/mL (calculated based on free crystal form) were rotationally mixed with corresponding vehicles at room temperature. […] After sampling at each time point, the samples were centrifuged (at 10000 rpm) and filtered (through a 0.22 µm PTFE filter head), the HPLC concentrations and pH values of the filtrates were determined, and the centrifuged solid samples were subjected to XRPD analysis.

Cc1cc(-c2cnn(-c3ccc(NS(=O)(=O)CCO)cc3N3CCC4(CC3)CC4)c2)nc(N2CCC(F)(F)CC2)n1 [free crystal form D]
crystal form after the DVS test (XRPD) ([1]; 25 °C, 0% RH to 95% RH): converted to the free crystal forms D + J
vapor sorption values ([1]; 25 °C/80% RH): 3.129%
crystal form after the stability test (XRPD) [2]: converted to the free crystal forms J + D
S: solubility ([3]; FaSSIF, 1 h, 60 min): 6.5 µg/mL
S: solubility ([3]; FaSSIF, 2 h, 120 min): 6.5 µg/mL
S: solubility ([3]; FaSSIF, 4 h, 240 min): 6.3 µg/mL
S: solubility ([3]; FaSSIF, 24 h, 1440 min): 5 µg/mL
S: solubility ([3]; FeSSIF, 1 h, 60 min): 16.2 µg/mL
S: solubility ([3]; FeSSIF, 2 h, 120 min): 17.2 µg/mL
S: solubility ([3]; FeSSIF, 4 h, 240 min): 15.4 µg/mL
S: solubility ([3]; FeSSIF, 24 h, 1440 min): 15 µg/mL
S: solubility ([3]; H2O, 1 h, 60 min): 0.1 µg/mL
S: solubility ([3]; H2O, 2 h, 120 min): 0.1 µg/mL
S: solubility ([3]; H2O, 4 h, 240 min): 0.2 µg/mL
S: solubility ([3]; SGF, 1 h, 60 min): 6.2 µg/mL
S: solubility ([3]; SGF, 2 h, 120 min): 5.7 µg/mL
S: solubility ([3]; SGF, 4 h, 240 min): 5.9 µg/mL
S: solubility ([3]; SGF, 24 h, 1440 min): 5.1 µg/mL
FC: crystal form change ([3]; FaSSIF, 1 h): No
FC: crystal form change ([3]; FaSSIF, 2 h): No
FC: crystal form change ([3]; FaSSIF, 4 h): No
FC: crystal form change ([3]; FaSSIF, 24 h): No
FC: crystal form change ([3]; FeSSIF, 1 h): No
FC: crystal form change ([3]; FeSSIF, 2 h): No
FC: crystal form change ([3]; FeSSIF, 4 h): No
FC: crystal form change ([3]; FeSSIF, 24 h): No
FC: crystal form change ([3]; H2O, 1 h): No
FC: crystal form change ([3]; H2O, 2 h): No
FC: crystal form change ([3]; H2O, 4 h): No
FC: crystal form change ([3]; H2O, 24 h): No
FC: crystal form change ([3]; SGF, 1 h): No
FC: crystal form change ([3]; SGF, 2 h): No
FC: crystal form change ([3]; SGF, 4 h): No
FC: crystal form change ([3]; SGF, 24 h): No
pH ([3]; FaSSIF, 1 h): 6.51
pH ([3]; FaSSIF, 2 h): 6.53
pH ([3]; FaSSIF, 4 h): 6.55
pH ([3]; FaSSIF, 24 h): 6.49
pH ([3]; FeSSIF, 1 h): 4.97
pH ([3]; FeSSIF, 2 h): 5.01
pH ([3]; FeSSIF, 4 h): 4.97
pH ([3]; FeSSIF, 24 h): 4.96
pH ([3]; H2O, 1 h): 6.91
pH ([3]; H2O, 2 h): 7.64
pH ([3]; H2O, 4 h): 7.88
pH ([3]; H2O, 24 h): 7.65
pH ([3]; SGF, 1 h): 1.26
pH ([3]; SGF, 2 h): 1.38
pH ([3]; SGF, 4 h): 1.29
pH ([3]; SGF, 24 h): 1.32

Cc1cc(-c2cnn(-c3ccc(NS(=O)(=O)CCO)cc3N3CCC4(CC3)CC4)c2)nc(N2CCC(F)(F)CC2)n1 [crystal form C of the hydrochloride]
S: solubility ([4]; FaSSIF, 2 h, listed as Crystal form C of hydrochloride, 120 min): 120.4 µg/mL
S: solubility ([4]; FaSSIF, 24 h, listed as Crystal form C of hydrochloride, 1440 min): 36.3 µg/mL
S: solubility ([4]; H2O, 24 h, listed as Crystal form C of hydrochloride, 1440 min): 0.2 µg/mL
S: solubility ([4]; SGF, 2 h, listed as Crystal form C of hydrochloride, 120 min): 54.1 µg/mL
S: solubility ([4]; SGF, 24 h, listed as Crystal form C of hydrochloride, 1440 min): 18.8 µg/mL
pH ([4]; FaSSIF, 2 h, listed as Crystal form C of hydrochloride): 6.3
pH ([4]; FaSSIF, 24 h, listed as Crystal form C of hydrochloride): 6.3
pH ([4]; H2O, 2 h, listed as Crystal form C of hydrochloride): 2.7
pH ([4]; H2O, 24 h, listed as Crystal form C of hydrochloride): 2.7
pH ([4]; SGF, 2 h, listed as Crystal form C of hydrochloride): 1.8
pH ([4]; SGF, 24 h, listed as Crystal form C of hydrochloride): 1.8

Cc1cc(-c2cnn(-c3ccc(NS(=O)(=O)CCO)cc3N3CCC4(CC3)CC4)c2)nc(N2CCC(F)(F)CC2)n1 [free crystal form C]
S: solubility ([4]; FaSSIF, 2 h, 120 min): 13.6 µg/mL
S: solubility ([4]; FaSSIF, 24 h, 1440 min): 3.8 µg/mL
S: solubility ([4]; SGF, 2 h, 120 min): 4 µg/mL
S: solubility ([4]; SGF, 24 h, 1440 min): 3.4 µg/mL
pH ([4]; FaSSIF, 2 h): 6.5
pH ([4]; FaSSIF, 24 h): 6.5
pH ([4]; H2O, 2 h): 8.7
pH ([4]; H2O, 24 h): 7.2
pH ([4]; SGF, 2 h): 1.9
pH ([4]; SGF, 24 h): 1.9
